Assay results as given in patent US10668040B2, “Treatment of urea cycle disorders in neonates and infants” (Horizon Therapeutics, LLC, priority 2017, dated 2020).

Tests used:
Type in all cases: in vivo, human
[1] = system: pediatric patients with UCDs; experiment: HPN-100-012 switch-over study: 24-hour blood ammonia on HPN-100 vs NaPBA
Source text: HPN-100-012 was an open-label, fixed sequence, switch-over study of the safety, PK and efficacy of HPN-100 compared to NaPBA in patients with UCDs, with a 12-month safety extension part. […] After review of all the safety data by the DSMB, 8 additional subjects were enrolled in the study after the switch-over phase was completed.

pediatric UCD patients = experiment: Pooled ammonia analyses from short term studies
Description: Pooled ammonia analyses from short term studies were also conducted.

[2] = Pharmacokinetics of HPN-100 and NaPBA, study HPN-100-005; settings: HPN-100-005 (N = 11)
Source text: (§1) The pharmacokinetics of the short term studies can be summarized as follows. Mean exposure levels of HPN-100 metabolites PBA, PAA, and PAGN after doses of HPN-100 and NaPBA with meals (TID) in pediatric (29 days to 17 years of age) UCD patients in HPN-100-005 and HPN-100-012 studies are summarized below. The mean exposure to PBA, the parent metabolite, and mean exposure to PAGN, the terminal metabolite, show no systematic variation across age groups, while PAA exposure tended to decrease with increasing age, a finding consistent with those from population PK modeling which indicate that the rate of clearance/metabolism of PAA varies directly with body size. While systemic metabolite exposure, assessed as peak plasma concentration (Cmax) or AUC, is generally similar for HPN-100 and NaPBA, the minimum concentration (Cmin-ss) was higher—and/or percent-fluctuation less—for plasma PAGN, a finding consistent with slower gastrointestinal absorption of PBA when administered orally as HPN-100.

[3] = Pharmacokinetics of HPN-100 and NaPBA, study HPN-100-012; settings: HPN-100-012 (N = 15)
Source text: as §1

SMILES: O=C([O-])CCCc1ccccc1.[Na+] [NaPBA, sodium phenylbutyrate]
- Mean blood ammonia ([1]; 12-hour time point, HPN-100 Day 10, NaPBA Day 1): 41.03 µmol/L
- Mean blood ammonia ([1]; 24-hour time point, NaPBA Day 1): 34.66 µmol/L
- Mean blood ammonia levels following an overnight fast ([1]; pre-dose and 24 hours post dose): normal
- abnormal ammonia values (pediatric UCD patients): 35%
- Plasma PAA % Fluctuation ([2]; mean (CV %)): 3931 (85.1) %
- Plasma PAA AUC0-24 ([2]; mean (CV %)): 773 (73.3) μg · h/mL
- Plasma PAA CLss/F ([2]; mean (CV %)): 34391 (162.5) mL/min
- Plasma PAA Cmax-ss ([2]; mean (CV %)): 75.1 (64.4) μg/mL
- Plasma PAA Cmin-ss ([2]; mean (CV %)): 0.674 (130.5) μg/mL
- Plasma PAGN % Fluctuation ([2]; mean (CV %)): 1917 (54.8) %
- Plasma PAGN AUC0-24 ([2]; mean (CV %)): 1015 (44.7) μg · h/mL
- Plasma PAGN CLss/F ([2]; mean (CV %)): 19739 (44.3) mL/min
- Plasma PAGN Cmax-ss ([2]; mean (CV %)): 74.8 (37.3) μg/mL
- Plasma PAGN Cmin-ss ([2]; mean (CV %)): 4.6 (66.4) μg/mL
- Plasma PBA % Fluctuation ([2]; mean (CV %)): 1979 (123.7) %
- Plasma PBA AUC0-24 ([2]; mean (CV %)): 236 (105.2) μg · h/mL
- Plasma PBA CLss/F ([2]; mean (CV %)): 145463 (123.4) mL/min
- Plasma PBA Cmax-ss ([2]; mean (CV %)): 37.4 (101.6) μg/mL
- Plasma PBA Cmin-ss ([2]; mean (CV %)): 0.37 (171.3) μg/mL
- U-PAGN Ae ([2]; mean (CV %)): 12512426 (51.3) μg
- U-PAGN Ae0-12 ([2]; mean (CV %)): 7098020 (47.5) μg
- U-PAGN Ae12-24 ([2]; mean (CV %)): 5414406 (71.9) μg
- U-PAGN Fe0-12 ([2]; mean (CV %)): 39.6 (30.0) %
- U-PAGN Fe12-24 ([2]; mean (CV %)): 29.3 (52.8) %
- U-PAGN Fe % dose ([2]; mean (CV %)): 69.0 (23.9) %
- Plasma PAA Tmax-ss ([2]; median): 12.00 h
- Plasma PAGN Tmax-ss ([2]; median): 12.00 h
- Plasma PBA Tmax-ss ([2]; median): 12.00 h
- Plasma PAA % Fluctuation ([3]; mean (CV %)): 1289 (102.8) %
- Plasma PAA AUC0-24 ([3]; mean (CV %)): 1458 (211.3) μg · h/mL
- Plasma PAA CLss/F ([3]; mean (CV %)): 94249 (243.7) mL/min
- Plasma PAA Cmax-ss ([3]; mean (CV %)): 98.0 (152.1) μg/mL
- Plasma PAA Cmin-ss ([3]; mean (CV %)): 49.2 (287.2) μg/mL
- Plasma PAGN % Fluctuation ([3]; mean (CV %)): 1459 (74.1) %
- Plasma PAGN AUC0-24 ([3]; mean (CV %)): 946 (75.5) μg · h/mL
- Plasma PAGN CLss/F ([3]; mean (CV %)): 14360 (93.0) mL/min
- Plasma PAGN Cmax-ss ([3]; mean (CV %)): 74.4 (61.3) μg/mL
- Plasma PAGN Cmin-ss ([3]; mean (CV %)): 17.7 (159.6) μg/mL
- Plasma PBA % Fluctuation ([3]; mean (CV %)): 5102 (75.9) %
- Plasma PBA AUC0-24 ([3]; mean (CV %)): 483 (146.0) μg · h/mL
- Plasma PBA CLss/F ([3]; mean (CV %)): 112093 (136.4) mL/min
- Plasma PBA Cmax-ss ([3]; mean (CV %)): 60.4 (128.3) μg/mL
- Plasma PBA Cmin-ss ([3]; mean (CV %)): 0.993 (227.3) μg/mL
- Plasma PAA Tmax-ss ([3]; median): 8.00 h
- Plasma PAGN Tmax-ss ([3]; median): 8.00 h
- Plasma PBA Tmax-ss ([3]; median): 8.30 h
